According to ChEMBL document CHEMBL1201862, “PubChem BioAssay data set” (2004):
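Briefly, cells in 96-well plates were exposed to five compound concentrations for 48 h, and endpoints were estimated by linear interpolation. GI50 marks 50% less growth.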 Active and inactive are the calls of the source. No stated cut-off is given here; in the data, active = GI50 up to about 1.1 µM and inactive = higher.

Legend:
Experiment in all cases: inhibition of tumour cell growth, NCI panel, 48 h
786-0 = test system: 786-0
A549 = test system: A549
ACHN = test system: ACHN
BT-549 = test system: BT-549
CAKI-1 = test system: CAKI-1
CCRF-CEM = test system: CCRF-CEM
COLO 205 = test system: COLO 205
DU-145 = test system: DU-145
EKVX = test system: EKVX
HCC 2998 = test system: HCC 2998
HCT-116 = test system: HCT-116
HCT-15 = test system: HCT-15
HL-60 = test system: HL-60
HOP-62 = test system: HOP-62
HOP-92 = test system: HOP-92
HT-29 = test system: HT-29
Hs-578T = test system: Hs-578T
IGROV-1 = test system: IGROV-1
K562 = test system: K562
KM12 = test system: KM12
LOX IMVI = test system: LOX IMVI
M14 = test system: M14
MCF7 = test system: MCF7
MDA-MB-231 = test system: MDA-MB-231
MDA-MB-435 = test system: MDA-MB-435
MDA-N = test system: MDA-N
MOLT-4 = test system: MOLT-4
Malme-3M = test system: Malme-3M
NCI-H226 = test system: NCI-H226
NCI-H23 = test system: NCI-H23
NCI-H460 = test system: NCI-H460
NCI-H522 = test system: NCI-H522
NCI/ADR-RES = test system: NCI/ADR-RES
OVCAR-3 = test system: OVCAR-3
OVCAR-4 = test system: OVCAR-4
OVCAR-5 = test system: OVCAR-5
OVCAR-8 = test system: OVCAR-8
PC-3 = test system: PC-3
RPMI-8226 = test system: RPMI-8226
RXF 393 = test system: RXF 393
SF-268 = test system: SF-268
SF-295 = test system: SF-295
SF-539 = test system: SF-539
SK-MEL-28 = test system: SK-MEL-28
SK-MEL-2 = test system: SK-MEL-2
SK-MEL-5 = test system: SK-MEL-5
SK-OV-3 = test system: SK-OV-3
SN12C = test system: SN12C
SNB-19 = test system: SNB-19
SNB-75 = test system: SNB-75
SR = test system: SR
SW-620 = test system: SW-620
TK-10 = test system: TK-10
U-251 = test system: U-251
UACC-257 = test system: UACC-257
UACC-62 = test system: UACC-62
UO-31 = test system: UO-31
T47D = test system: T47D
A498 = test system: A498

Compound: O=C1C(NS(=O)(=O)c2ccccc2)=C(n2cnc3ccccc32)C(=O)c2ccccc21
- GI50 (786-0): 60.4 µM (inactive)
- GI50 (A549): > 100 µM (inactive)
- GI50 (ACHN): > 100 µM (inactive)
- GI50 (BT-549): 4.66 µM (inactive)
- GI50 (CAKI-1): > 100 µM (inactive)
- GI50 (CCRF-CEM): 85.9 µM (inactive)
- GI50 (COLO 205): > 100 µM (inactive)
- GI50 (DU-145): > 100 µM (inactive)
- GI50 (EKVX): > 100 µM (inactive)
- GI50 (HCC 2998): > 100 µM (inactive)
- GI50 (HCT-116): > 100 µM (inactive)
- GI50 (HCT-15): > 100 µM
- GI50 (HL-60): > 100 µM (inactive)
- GI50 (HOP-62): 32.4 µM (inactive)
- GI50 (HOP-92): 41.4 µM (inactive)
- GI50 (HT-29): > 100 µM (inactive)
- GI50 (Hs-578T): 48.6 µM (inactive)
- GI50 (IGROV-1): 52.8 µM (inactive)
- GI50 (K562): > 100 µM (inactive)
- GI50 (KM12): > 100 µM (inactive)
- GI50 (LOX IMVI): > 100 µM (inactive)
- GI50 (M14): > 100 µM (inactive)
- GI50 (MCF7): > 100 µM (inactive)
- GI50 (MDA-MB-231): 48.9 µM (inactive)
- GI50 (MDA-MB-435): > 100 µM (inactive)
- GI50 (MDA-N): > 100 µM (inactive)
- GI50 (MOLT-4): > 100 µM (inactive)
- GI50 (Malme-3M): > 100 µM (inactive)
- GI50 (NCI-H226): > 100 µM (inactive)
- GI50 (NCI-H23): 58.2 µM (inactive)
- GI50 (NCI-H460): > 100 µM (inactive)
- GI50 (NCI-H522): 0.187 µM (active)
- GI50 (NCI/ADR-RES): > 100 µM (inactive)
- GI50 (OVCAR-3): > 100 µM (inactive)
- GI50 (OVCAR-4): 34.5 µM (inactive)
- GI50 (OVCAR-5): > 100 µM (inactive)
- GI50 (OVCAR-8): > 100 µM (inactive)
- GI50 (PC-3): > 100 µM (inactive)
- GI50 (RPMI-8226): 50.5 µM (inactive)
- GI50 (RXF 393): 16 µM (inactive)
- GI50 (SF-268): 86.3 µM (inactive)
- GI50 (SF-295): 57.4 µM (inactive)
- GI50 (SF-539): > 100 µM (inactive)
- GI50 (SK-MEL-28): > 100 µM (inactive)
- GI50 (SK-MEL-2): > 100 µM (inactive)
- GI50 (SK-MEL-5): > 100 µM (inactive)
- GI50 (SK-OV-3): > 100 µM (inactive)
- GI50 (SN12C): > 100 µM (inactive)
- GI50 (SNB-19): 38.4 µM (inactive)
- GI50 (SNB-75): 30.3 µM (inactive)
- GI50 (SR): > 100 µM (inactive)
- GI50 (SW-620): > 100 µM (inactive)
- GI50 (TK-10): 89.3 µM (inactive)
- GI50 (U-251): 46.1 µM (inactive)
- GI50 (UACC-257): > 100 µM (inactive)
- GI50 (UACC-62): 47.3 µM (inactive)
- GI50 (UO-31): 75.3 µM (inactive)

Compound: CC(C)(C)C1=NC(=S)SC2=NC(=O)C3(NN21)c1ccccc1-c1ccccc13
- GI50 (786-0): 9.57 µM (inactive)
- GI50 (A549): 7.26 µM (inactive)
- GI50 (ACHN): 6.14 µM (inactive)
- GI50 (BT-549): 6.35 µM (inactive)
- GI50 (CAKI-1): > 10 µM (inactive)
- GI50 (CCRF-CEM): 8.71 µM (inactive)
- GI50 (COLO 205): > 10 µM (inactive)
- GI50 (DU-145): > 10 µM (inactive)
- GI50 (EKVX): 2.67 µM (inactive)
- GI50 (HCC 2998): > 10 µM (inactive)
- GI50 (HCT-15): 9.27 µM
- GI50 (HL-60): 6.79 µM (inactive)
- GI50 (HOP-62): > 10 µM (inactive)
- GI50 (HOP-92): > 10 µM (inactive)
- GI50 (HT-29): > 10 µM (inactive)
- GI50 (IGROV-1): > 10 µM (inactive)
- GI50 (K562): 5.05 µM (inactive)
- GI50 (KM12): > 10 µM (inactive)
- GI50 (LOX IMVI): > 10 µM (inactive)
- GI50 (M14): > 10 µM (inactive)
- GI50 (MCF7): 4.43 µM (inactive)
- GI50 (MDA-MB-231): 9.46 µM (inactive)
- GI50 (MDA-MB-435): > 10 µM (inactive)
- GI50 (MDA-N): 8.41 µM (inactive)
- GI50 (MOLT-4): 3.45 µM (inactive)
- GI50 (Malme-3M): > 10 µM (inactive)
- GI50 (NCI-H226): 6.07 µM (inactive)
- GI50 (NCI-H23): > 10 µM (inactive)
- GI50 (NCI-H460): 4.61 µM (inactive)
- GI50 (NCI-H522): 9.25 µM (inactive)
- GI50 (NCI/ADR-RES): 5.41 µM (inactive)
- GI50 (OVCAR-4): 7.98 µM (inactive)
- GI50 (OVCAR-8): > 10 µM (inactive)
- GI50 (PC-3): 7.21 µM (inactive)
- GI50 (RPMI-8226): 5.08 µM (inactive)
- GI50 (RXF 393): > 10 µM (inactive)
- GI50 (SF-268): > 10 µM (inactive)
- GI50 (SF-295): > 10 µM (inactive)
- GI50 (SK-MEL-28): > 10 µM (inactive)
- GI50 (SK-MEL-5): 3.44 µM (inactive)
- GI50 (SK-OV-3): > 10 µM (inactive)
- GI50 (SN12C): > 10 µM (inactive)
- GI50 (SNB-19): > 10 µM (inactive)
- GI50 (SNB-75): > 10 µM (inactive)
- GI50 (SR): 4.59 µM (inactive)
- GI50 (SW-620): > 10 µM (inactive)
- GI50 (T47D): 2.04 µM (inactive)
- GI50 (TK-10): > 10 µM (inactive)
- GI50 (UACC-257): > 10 µM (inactive)
- GI50 (UACC-62): > 10 µM (inactive)
- GI50 (UO-31): 6.58 µM (inactive)

Compound: CCN(CC)C(=S)SS(=O)(=O)c1ccc([N+](=O)[O-])cc1
- GI50 (786-0): 16.7 µM (inactive)
- GI50 (A498): > 100 µM (inactive)
- GI50 (A549): 1.18 µM (inactive)
- GI50 (BT-549): 36.8 µM (inactive)
- GI50 (CAKI-1): 18.8 µM (inactive)
- GI50 (COLO 205): 19.9 µM (inactive)
- GI50 (EKVX): > 100 µM (inactive)
- GI50 (K562): 19.4 µM (inactive)
- GI50 (LOX IMVI): 17.5 µM (inactive)
- GI50 (Malme-3M): 14.9 µM (inactive)
- GI50 (NCI-H23): 56.8 µM (inactive)
- GI50 (NCI-H460): 96.2 µM (inactive)
- GI50 (NCI-H522): 0.0282 µM (active)
- GI50 (OVCAR-5): > 100 µM (inactive)
- GI50 (OVCAR-8): 20.4 µM (inactive)
- GI50 (RPMI-8226): 12.8 µM (inactive)
- GI50 (SF-539): 21.2 µM (inactive)
- GI50 (SK-MEL-2): 48.3 µM (inactive)
- GI50 (SK-MEL-5): 2.77 µM (inactive)
- GI50 (SK-OV-3): > 100 µM (inactive)
- GI50 (SNB-19): 76.7 µM (inactive)
- GI50 (SR): 0.148 µM (active)
- GI50 (T47D): 43.2 µM (inactive)
- GI50 (U-251): 14.5 µM (inactive)
- GI50 (UACC-62): 27.4 µM (inactive)
- GI50 (UO-31): 21.7 µM (inactive)
